Values quoted from earlier work, collected in patent EP0424512B1, “ANTIMETASTATIC PEPTIDES” (SRI INTERNATIONAL, priority 1989, dated 1990).

Test system: human fibrosarcoma HT-1080 and Chinese hamster ovary cells
Conditions: relative to laminin

Sequence: CDPGYIGSR [nine amino acid peptide from domain III of laminin B₁ chain]
- activity of laminin in cell attachment on a molar basis: 0.5-1%
